Measurements reported in patent publication US10975060B2, “High relaxivity gadolinium chelate compounds for use in magnetic resonance imaging” (BAYER PHARMA AKTIENGESELLSCHAFT, priority 2016, dated 2021).
“Also recorded” adds a separate entry of the source. Read-outs that look alike come from different tables or passages of the source.

Experiments:
[1] = Pharmacokinetic parameters of blood plasma levels after i.v. bolus in male rats (three compartment model); format: in vivo, rats (Han-Wistar); details: for AUC∞ Area under the curve (to infinity) / MRT Mean residence time / V1 + V2 Volume, compartments V1 + V2 / V2 Volume, compartment V2 / Vd, ss Volume of distribution at steady state / t½ α Half-life, compartment V1 / t½ β Half-life, compartment V2 / t½ γ Half-life, compartment V3: i.v. bolus 0.1 mmol Gd/kg, mean, n=3
Description: Pharmacokinetic parameters of Example 6 were determined in male rats (Han-Wistar, 235-270 g, n=3). The compound was administered as a sterile aqueous solution (53.8 mmol Gd/L) as a bolus in the tail vein of the animals. The dose was 0.1 mmol Gd/kg. Blood was sampled 1, 3, 5, 10, 15, 30, 60, 90, 120, 240, 360, 480, and 1440 min post injection and the Gd concentration was determined by Inductively Coupled Plasma Mass Spectrometry (ICP-MS Agilent 7500a, Waldbronn, Germany). The blood level was converted to plasma concentrations by division by 0.625 (plasma fraction of rat blood, assuming strictly extracellular distribution). As a control, 3 animals (Han-Wistar, 248-289 g), were treated in the same way with Reference Compound 1 (Gadovist®), a low molecular weight contrast agent.
The fit of the obtained data to a three compartment model (Phoenix-WinNonlin) yielded the pharmacokinetic parameters which are shown in Table 3.

[2] = Contrast-enhanced magnetic resonance angiography (CE-MRA) at 1.5 T, intraindividual comparison; format: in vivo, New Zealand white rabbits; details: rabbits
Description: Reference compound 1 (Gadovist®), as an approved representative of the Gadolinium-based MRI contrast agents, was used in both dose protocols (100 μmol Gd/kg bw and 25 μmol Gd/kg bw) and compared to example compound 6 (25 μmol Gd/kg bw).
The contrast-enhanced magnetic resonance angiography study was performed at a clinical 1.5 T Scanner (Magnetom Avanto Fit, Siemens Healthcare, Erlangen, Germany). For optimal signal exploitation, a spine in combination with a body-flex coil was used for the data acquisition. The study was performed on male New Zealand white rabbits (weight 3.6-3.9 kg, n=4, Charles River Kisslegg). The animals received all 3 contrast protocols within one imaging session. The order of the contrast protocols was randomized between the animals.
All animals are initially anesthetized using a body weight-adjusted intramuscular injection of a mixture (1+2) of xylazine hydrochloride (20 mg/mL, Rompun 2%, Bayer Vital GmbH, Leverkusen, Germany) and ketamine hydrochloride (100 mg/mL, Ketavet, Pfizer, Pharmacia GmbH, Berlin, Germany) using 1 mL/kg body weight. The continuous anesthesia of the intubated animals (endotracheal tube, Rueschelit Super Safe Clear, cuff 3.0 mm, Willy Ruesch A G, Kernen, Germany) is achieved by the intravenous injection of 0.9 mg propofol per kilogram per hour (10 mg/mL, Propofol-Lipuro 1%, B. Braun Melsungen A G, Melsungen, Germany). The continuous intravenous injection is performed using a MR infusion system (Continuum MR Infusion System, Medrad Europe B. V., A E Beek, Germany). The tracheal respiration (SV 900C, Maquet, Rastatt, Germany) is performed with 55% oxygen, forty breaths per minute, and a breathing volume of 4 mL per kilogram body weight per minute.
Based on a localizer MRI sequence oriented in coronal, axial, and sagittal directions the anatomic course of the aorta is acquired. A small intravenous test bolus (0.2 mL, Reference compound 1 followed by 1.3 mL saline) was administered to determine the time to peak interval (descending aorta) using a test bolus sequence. The MRA delay time between the start of the contrast injection and the start of image acquisition was calculated by subtracting the time to k-space center from the time to peak interval. For MRA a 3D FLASH sequence (TR=3.3 ms, TE=1.2 ms, flip=25°) was acquired before and after injection of the contrast agent considering the delay time. Both measurements were performed within expiratory breath hold. The time interval for the intraindividual comparison between the different contrast agent applications was twenty to thirty minutes.
Quantitative image evaluation was performed on the subtraction images (post contrast—baseline). […]

[3] = Dynamic CT diffusion phantom study (dialysis cassette in fetal bovine serum); format: physicochemical; details: dialysis cassette 20,000 MWCO, 20 mmol Gd/L, CT signal over 30 h
Procedure, shortened: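 Contrast agent at 20 mmol Gd/L in a 20 kDa MWCO dialysis cassette was placed in fetal bovine serum. Diffusion was followed by clinical CT at 100 kV and 104 mA at time points from 0 min to 30 h. Regions of interest were drawn on one central 2.4 mm slice per time point.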

[4] = 37 °C, cited from earlier work
[5] = Relaxivity measurements at 1.4 T (MiniSpec mq60, 60 MHz, 37 °C) in water and human plasma; format: physicochemical; details: 1.41 T, normalized to Gd
Procedure, shortened: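 T1 by inversion recovery and T2 by CPMG, relaxation delay ≥5×T1, at three Gd concentrations between 0.05 and 2 mM in water or fresh citrated human plasma. Relaxivities r1, r2 taken as slopes of relaxation rate versus Gd concentration, verified by ICP-MS.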

[6] = Relaxivity measurements at 3.0 T (whole body MRI scanner, 37 °C) in water and human plasma; format: physicochemical; details: normalized to Gd, average ± standard deviation
Procedure, shortened: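 T1 relaxivity measured on a 3.0 T whole-body MRI scanner at 37 °C in water and fresh citrated human plasma; inversion-recovery sequence, TE 7.46 ms, TIs 50–4500 ms. Three concentrations per compound between 0.05 and 2 mM; ri derived from slope of Ri versus Gd-normalised concentration.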

[7] = Chemical stability: autoclaving at 121 °C for 20 min in 10 mM Tris-HCl pH 7.4, HPLC-ICP-MS; format: physicochemical; details: 5 mmol Gd/L in 10 mM Tris-HCl pH 7.4, 121 °C
Description: The aliquot removed before and after autoclaving was analyzed by HPLC-ICP-MS to determine the integrity of the compound.
HPLC: Column: Hypercarb 2.5 mm×15 cm. Solvent A: 0.1% formic acid in water. Solvent B: acetonitrile. Gradient from 100% A to 5% A+95% B in 10 min. Flow 1 ml/min. Detection by ICP-MS, tuned to ^158Gd. The chromatograms, displaying the intensity of the detected Gd, were visually compared. No changes in the chromatograms before and after autoclaving were detected. The compound was stable during the autoclaving procedure.

[8] = Gd-complex stabilities in human plasma at 37 °C, 15 d (released Gd3+ by HPLC-ICP-MS); format: in vitro ADME
Description: Gd-Complex Stabilities in Human Plasma at 37° C., 15 d
Example 1 was separately dissolved in human plasma at 1 mmol Gd/L. As a reference for released Gd^3+ 0.1 mmol/L Gadolinium chloride (GdCl3) was dissolved in human plasma. The plasma samples were incubated for 15 days at 37° C. under 5% CO2 atmosphere to maintain the pH at 7.4. Aliquots were taken at the start and end of the incubation. The amount of Gd^3+ released from the complexes was determined by HPLC-ICP-MS. Column: Chelating Sepharose (HiTrap, 1 mL). Solvent A: 10 mM BisTris-HCl pH 6.0. Solvent B: 15 mM HNO3. Gradient: 3 min at 100% A, from 3 to 10 min at 100% B. Flow 1 mL/min. Detection by ICP-MS, tuned to ^158Gd. The chromatograms, displaying the intensity of the detected Gd, were evaluated by peak area analysis. The size of the peak of Gd^3+, eluting after the change from solvent A to B, was recorded. For Example 1 the increase of this peak and thus the release of Gd^3 after 15 days was below the limit of quantification (<0.1% of the injected total amount of Gadolinium). Example 1 is stable under physiological conditions.

[9] = Water solubility (exploratory, 10 mM Tris-HCl, 20 °C); format: physicochemical; details: water (10 mM Tris-HCl buffer), pH 7.4
Description: The exploratory water solubilities of the compounds were determined at room temperature (20° C.) in 0.5 mL buffer solution (10 mM Tris-HCl) in the microcentrifuge tubes (Eppendorf, 2.0 mL safe-lock caps). The solid compounds were added stepwise to the buffer solution. The suspension was mixed using a shaker (Heidolph Reax 2000) and treated 5 min in an ultrasound bath (Bandelin, Sonorex Super RK255H).

[10] = subtraction images, carotid artery, aorta, renal arteries

| SMILES | AUC∞ Area under the curve (to infinity) [1] [µmol·min/L] | MRT Mean residence time [1] [min] | V1 + V2 Volume, compartments V1 + V2 [1] [L/kg] | V2 Volume, compartment V2 [1] [L/kg] | Vd, ss Volume of distribution at steady state [1] [L/kg] | t½ α Half-life, compartment V1 [1] [min] | t½ β Half-life, compartment V2 [1] [min] | t½ γ Half-life, compartment V3 [1] [min] | Diffusion half-live (20 kDa) [3] [h] | r1 human plasma [5] [L/mmol/s] | r1 water [5] [L/mmol/s] | Solubility [9] [mg/100 mL] | also measured |
| --- | --- | --- | --- | --- | --- | --- | --- | --- | --- | --- | --- | --- | --- |
| O=C([O-])CN1CCN(CC(=O)[O-])CCN([C@H](CO)[C@H](O)CO)CCN(CC(=O)[O-])CC1.[Gd+3] (racemic) [RC1, gadobutrol, reference compound] | 11334 | 40.5 | 0.11 | 0.16 | 0.26 | 1.80 | 22.1 | 780 | 2.1 |  |  |  | vascular contrast at the reduced dose (25 μmol/kg) of the reference compound ([2]; 25 μmol Gd/kg bw versus standard dose 100 μmol/kg and example compound 6 at 25 μmol/kg): considerable lower; r1 human plasma ([4]; 1.5 T, bovine plasma instead of human plasma, from Rohrer et al.): 5.2 L/mmol/s; r1 water ([4]; 1.5 T, from Rohrer et al.): 3.3 L/mmol/s; r1 human plasma ([4]; 3.0 T, plasma, reference compounds marked ^ (Rohrer et al., bovine plasma per Table 1 footnote)): 5.0 ± 0.3 L/mmol/s; r1 water ([4]; 3.0 T, reference compounds marked ^ (Rohrer et al. per Table 1 footnote)): 3.2 ± 0.3 L/mmol/s |
| CN(CC(=O)NCC(CNC(=O)CN(C)C(=O)CN1CCN(CC(=O)[O-])CCN(CC(=O)[O-])CCN(CC(=O)[O-])CC1)(CNC(=O)CN(C)C(=O)CN1CCN(CC(=O)[O-])CCN(CC(=O)[O-])CCN(CC(=O)[O-])CC1)CNC(=O)CN(C)C(=O)CN1CCN(CC(=O)[O-])CCN(CC(=O)[O-])CCN(CC(=O)[O-])CC1)C(=O)CN1CCN(CC(=O)[O-])CCN(CC(=O)[O-])CCN(CC(=O)[O-])CC1.[Gd+3].[Gd+3].[Gd+3].[Gd+3] [Example 1, Tetragadolinium [4,10-bis(carboxylatomethyl)-7-{3,13-dimethyl-8,8-bis({[(methyl{[4,7,10-tris(carboxylatomethyl)-1,4,7,10-tetraazacyclododecan-1-yl]acetyl}amino)-acetyl]amino}methyl)-2,5,11,14-tetraoxo-15-[4,7,10-tris(carboxylatomethyl)-1,4,7,10-tetraazacyclododecan-1-yl]-3,6,10,13-tetraazapentadec-1-yl}-1,4,7,10-tetraazacyclo-dodecan-1-yl]acetate] |  |  |  |  |  |  |  |  | 10.4 | 11.7 | 10.1 | >1000 | r1 human plasma ([6]; human plasma): 10.3 ± 0.2 L/mmol/s; r1 water ([6]; water): 9.1 ± 0.1 L/mmol/s; appearance of the solution after autoclaving [7]: clear and colorless; changes in the chromatograms (HPLC-ICP-MS) before and after autoclaving [7]: No changes; stability during the autoclaving procedure [7]: stable; release of Gd3+ after 15 days ([8]; 1 mmol Gd/L, pH 7.4, below the limit of quantification): < 0.1 % of the injected total amount of Gadolinium; stability under physiological conditions ([8]; 15 days): stable |
| CC(C)CN(CC(=O)NCC(CNC(=O)CN(CC(C)C)C(=O)CN1CCN(CC(=O)[O-])CCN(CC(=O)[O-])CCN(CC(=O)[O-])CC1)(CNC(=O)CN(CC(C)C)C(=O)CN1CCN(CC(=O)[O-])CCN(CC(=O)[O-])CCN(CC(=O)[O-])CC1)CNC(=O)CN(CC(C)C)C(=O)CN1CCN(CC(=O)[O-])CCN(CC(=O)[O-])CCN(CC(=O)[O-])CC1)C(=O)CN1CCN(CC(=O)[O-])CCN(CC(=O)[O-])CCN(CC(=O)[O-])CC1.[Gd+3].[Gd+3].[Gd+3].[Gd+3] [Example 6, Tetragadolinium {4,10-bis(carboxylatomethyl)-7-[3-isobutyl-8,8-bis({[(isobutyl{[4,7,10-tris(carboxylatomethyl)-1,4,7,10-tetraazacyclododecan-1-yl]acetyl}amino)acetyl]-amino}methyl)-15-methyl-2,5,11-trioxo-13-{[4,7,10-tris(carboxylatomethyl)-1,4,7,10-tetraazacyclododecan-1-yl]acetyl}-3,6,10,13-tetraazahexadec-1-yl]-1,4,7,10-tetraaza-cyclododecan-1-yl}acetate] | 10801 | 40.7 | 0.14 | 0.12 | 0.27 | 2.45 | 22.4 | 1041 | 15.0 | 14.1 | 11.6 | >1000 | pharmacokinetic compared to that of the reference compound 1 ([1]; 0.1 mmol Gd/kg i.v.): very similar; vascular contrast (MR-angiograms, qualitative) at 25 μmol/kg compared to reference compound 1 at 100 μmol/kg ([2]; example compound 6 at 25 μmol Gd/kg bw): No qualitative difference; signal enhancement at vascular regions, 25 μmol/kg compared to reference compound 1 at reduced (identical) dose (25 μmol/kg) [2, 10]: significantly (p<0.001) higher; signal enhancement at vascular regions, 25 μmol/kg compared to reference compound 1 at standard dose (100 μmol/kg) [2, 10]: No significant difference; also recorded: similar |
